Data taken from patent US12715844B2, “Compound, preparation method therefor, composition, kit and use thereof” (SIGNDO BIOTECHNOLOGY (SUZHOU) CO., LTD, priority 2023, dated 2026).
Several values for one entry are separate records, joined by “and”; a condition that tells them apart may be missing. Identical values can stand only once.

What was measured:
PSMA receptor = molecular target: T1, PSMA receptor (Homo sapiens, UniProt Q04609); test: Receptor binding detected by flow cytometry in vitro (competitive binding with DUPA-FITC); settings: 22RV1 (PSMA+) cells, competition with 100 nmol/L DUPA-FITC
T1 construct: endogenous in cells; host or cells: 22RV1 (PSMA+); PC3 (PSMA−) as negative control
T1 sequence (Q04609 whole entry): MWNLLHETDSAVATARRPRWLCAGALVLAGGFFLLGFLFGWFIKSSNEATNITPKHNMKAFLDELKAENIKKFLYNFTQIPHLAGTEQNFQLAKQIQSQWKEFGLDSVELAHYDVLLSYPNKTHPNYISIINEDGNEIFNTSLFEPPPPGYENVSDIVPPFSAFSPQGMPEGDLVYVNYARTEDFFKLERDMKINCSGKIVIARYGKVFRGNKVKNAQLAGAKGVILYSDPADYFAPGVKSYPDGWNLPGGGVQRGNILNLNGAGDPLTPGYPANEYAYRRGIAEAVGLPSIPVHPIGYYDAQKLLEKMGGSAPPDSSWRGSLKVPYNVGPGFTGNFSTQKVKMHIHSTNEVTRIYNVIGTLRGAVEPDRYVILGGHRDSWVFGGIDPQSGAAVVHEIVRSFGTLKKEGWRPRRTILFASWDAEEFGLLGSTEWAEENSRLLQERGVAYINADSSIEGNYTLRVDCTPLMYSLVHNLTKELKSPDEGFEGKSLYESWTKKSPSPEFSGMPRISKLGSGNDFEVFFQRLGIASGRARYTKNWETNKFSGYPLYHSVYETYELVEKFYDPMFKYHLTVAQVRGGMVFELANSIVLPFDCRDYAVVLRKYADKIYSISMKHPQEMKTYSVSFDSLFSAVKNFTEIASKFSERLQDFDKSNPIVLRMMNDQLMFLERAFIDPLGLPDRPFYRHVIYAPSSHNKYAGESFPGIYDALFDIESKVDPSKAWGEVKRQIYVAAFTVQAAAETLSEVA
Description: 1. Receptor Binding was Detected by Flow Cytometry In Vitro:
Prostate-specific membrane antigen (PSMA) is overexpressed on prostate cancer cells. Both DUPA-FITC and DGPR1008 are capable of targeting the PSMA receptor in prostate cancer cells, with the difference being that DUPA-FITC is connected to a visible light dye (Ex=495 nm, Em=520 nm), whereas DGPR1008 is connected to a near-infrared dye (Ex=776 nm, Em=793 nm). Since the majority types of lasers equipped in flow cytometers operate within the visible light spectrum, the binding affinity of DGPR1008 to the receptor can not be directly measured. Therefore, the competitive binding of DGPR1008 with DUPA-FITC to PSMA is employed to indirectly assess the binding affinity of the test compound to the receptor.
DGPR1008, DUPA-FITC, 22RV1 (PSMA+), PC3 (PSMA−), 1640 culture medium, FBS, double antibiotics, trypsin, centrifuge, 4° C. constant temperature incubator, flow cytometer.
Drug preparation: 100 nmol/L DUPA-FITC was prepared using culture medium. The test compound was diluted to nine concentrations (0.00098 μM, 0.002 μM, 0.008 μM, 0.01 μM, 0.03 μM, 0.05 μM, 0.09 μM, 0.1 μM, and 0.125 μM) using culture medium containing 100 nmol/L DUPA-FITC, with three replicate wells for each concentration.
Cell culture: The cells were seeded in T75 culture flasks. After 48 h, cells in the logarithmic growth phase were taken, digested with trypsin for 1-2 min, and the digestion was then terminated by adding fresh culture medium. After cell counting, the cells were transferred into a 96-well plate (1×10^5 cells/well), totaling 27 wells. The culture medium was discarded by centrifugation (800 rpm, 5 min), and the cells were washed twice with PBS and then centrifuged to collect the cell pellet. The prepared culture media with 9 concentrations were added to the cell-containing wells, with three replicates for each concentration. The cells were incubated at 4° C. in the dark for 30 min, and then the culture medium in the wells was discarded. Cells were washed by adding 300 μL of fresh culture medium (twice) and saline (once) to each well, followed by resuspension in 300 μL of saline for flow cytometry detection.

22RV1 (PSMA+) [1] = test: Drug efficacy validation by in vivo live imaging, three dose groups; parameters: species or system mice; settings: for targeting properties: 22RV1 tumor mice, in vivo live imaging; for enrichment in the prostate cancer tumor site: high, medium and low doses (25, 50, 100 nmol/mouse), scans 1-48 h
Description: (§1) “V” denotes the volume-to-mass ratio. […] Mice refer to BALB/c nude mice, 6-8 weeks old, weighing 18-20 g; rats refer to SD rats: 8 weeks old, approximately 250 g.
2. Drug Efficacy Validation Experiment Using In Vivo Live Imaging
Prostate-specific membrane antigen (PSMA) is overexpressed on prostate cancer cells. The test compound is a PSMA-targeting molecule conjugated with a near-infrared region I dye. The test compound can bind to PSMA and “illuminate” cancer cells upon excitation by a near-infrared light source. In this experiment, the in vivo tissue distribution of the test compound in mice is detected using in vivo live imaging.
DGPR1008, 22RV1 (PSMA+), PC3 (PSMA−), 1640 culture medium, FBS, double antibodies, trypsin, Matrigel (BD), vernier caliper, centrifuge, IVIS live imager.
Matrigel was thawed on ice in advance, and the culture medium was pre-cooled on ice. After centrifugation, the cells were resuspended in the pre-cooled culture medium, followed by the addition of HC Matrigel gel in a volume equal to the culture medium. The centrifuge tube containing the cells was placed on ice and transferred to the animal facility. The cells were thoroughly dispersed before inoculation. The right dorsal shoulder area of the mice was disinfected with an alcohol cotton ball, and a single intravenous administration was performed with an inoculation volume of 200 μL per mouse. All operations were performed on ice. When the tumor volume reached 300-400 mm^3, the mice were grouped for administration. Nine mice with well-grown and regularly shaped tumors were selected into the group. The nine mice were randomly divided into three groups: G1 (25 nmol/mouse), G2 (50 nmol/mouse), and G3 (100 nmol/mouse), with three mice in each group. The scanning time: 1, 2, 4, 8, 24, and 48 h.

22RV1 (PSMA+) [2] = test: In vivo live imaging comparison with the existing product OTL78; parameters: species or system mice; settings: for TBR (tumor-to-background ratio), in words: from about 2 h to 72 h; for fluorescence value at the tumor site compared with OTL78: mice, each time point; for TBR compared with OTL78: relative to OTL78; for TBR (mean) / fluorescence value at the tumor site: 10 nmol/mouse; for TBR (mean): 200 μL/mouse
Description: as §1
3. Comparison with the Existing Product OTL78
(§2) The Prostate-specific membrane antigen (PSMA) is overexpressed on prostate cancer cells. The test compound is a PSMA-targeting molecule conjugated with a near-infrared region I dye. The test compound can bind to PSMA and “illuminate” cancer cells upon excitation by a near-infrared light source. In this experiment, the in vivo and ex vivo tissue distribution of the test compound in mice is detected using in vivo live imaging.
DGPR1008, 22RV1 (PSMA+), BALB/c nude mouse, 1640 culture medium, FBS, double antibodies, trypsin, Matrigel (BD), vernier caliper, centrifuge, IVIS live imager.
(§3) Matrigel was thawed on ice in advance, and the culture medium was pre-cooled on ice. After centrifugation, the cells were resuspended in the pre-cooled culture medium, followed by the addition of HC Matrigel gel in a volume equal to the culture medium. The centrifuge tube containing the cells was placed on ice and transferred to the animal facility. The cells were thoroughly dispersed before inoculation. The back of the neck was disinfected with an alcohol cotton ball, and a single intravenous administration was performed with an inoculation volume of 200 μL per mouse. All operations were performed on ice. When the tumor volume reached 300-400 mm^3, the mice were grouped for administration. Six mice with well-grown and regularly shaped tumors were selected into the group. The six mice were randomly divided into two groups: G1 (OTL78 10 nmol/mouse) and G2 (DGPR1008 10 nmol/mouse) with three mice in each group. The scanning time: 1, 2, 4, 8, 24, and 72 h.
(1) Results and Data of In Vivo Live Imaging of Drug Efficacy (Mice were Used as Experimental Subjects in this Part)

22RV1 (PSMA+) [3] = test: 2-hour ex vivo tissue distribution: fluorescence of tumor and in situ normal prostate; parameters: species or system mice; settings: for discrimination capability (tumor vs normal prostate) compared with OTL78: relative to OTL78; for Prostate fluorescence / Tumor fluorescence / T/P Ratio: 2 h ex vivo, 10 nmol/mouse; for T/P Ratio: tumor to in situ normal prostate
Description: as §2, §3
(2) Results of 2-Hour Ex Vivo Tissue Distribution: Fluorescence Ratio of Tumor to In Situ Normal Prostate: […]

[4] = Pharmacokinetic parameters in rat plasma; format: in vivo; settings: for clearance in rats in vivo, in words: compared with OTL78
[5] = Acute toxicity experiment on rats; settings: three dose groups of high, medium and low doses

Compound | binding affinity to PSMA receptor (PSMA receptor) | targeting properties (22RV1 (PSMA+) [1]) | enrichment in the prostate cancer tumor site (22RV1 (PSMA+) [1]) | TBR (tumor-to-background ratio), in words (22RV1 (PSMA+) [2]) | fluorescence value at the tumor site compared with OTL78 (22RV1 (PSMA+) [2]) | TBR compared with OTL78 (22RV1 (PSMA+) [2]) | discrimination capability (tumor vs normal prostate) compared with OTL78 (22RV1 (PSMA+) [3]) | clearance in rats in vivo, in words [4] | toxic reactions in acute toxicity experiment [5] | other results
CC1(C)C(=CC=C2CCCC(C=CC3=[N+](CCCCS(=O)(=O)[O-])c4ccc(S(=O)(=O)[O-])cc4C3(C)C)=C2Oc2ccc(CC(NC(=O)CCOCCOCCNC(=O)CCC(NC(=O)NC(CCC(=O)[O-])C(=O)[O-])C(=O)[O-])C(=O)[O-])cc2)N(CCCCS(=O)(=O)[O-])c2ccc(S(=O)(=O)[O-])cc21.[K+].[K+].[K+].[K+].[K+].[K+].[K+] (centres unmarked) [Example 12] | good affinity | good targeting properties | enriched in the prostate cancer tumor site | good TBR | greater fluorescence values at the tumor site than OTL78 | higher TBR | approximately 5 fold | cleared more rapidly | no toxic reactions were observed | –
CC1(C)C(=CC=C2CCCC(C=CC3=[N+](CCCCS(=O)(=O)[O-])c4ccc(S(=O)(=O)[O-])cc4C3(C)C)=C2Oc2ccc(CC(NC(=O)CCOCCOCCNC(=O)CCC(NC(=O)NC(CCC(=O)[O-])C(=O)[O-])C(=O)[O-])C(=O)[O-])cc2)N(CCCCS(=O)(=O)[O-])c2ccc(S(=O)(=O)[O-])cc21.[Li+].[Li+].[Li+].[Li+].[Li+].[Li+].[Li+] (centres unmarked) [Example 13] | good affinity | good targeting properties | enriched in the prostate cancer tumor site | good TBR | greater fluorescence values at the tumor site than OTL78 | higher TBR | approximately 5 fold | cleared more rapidly | no toxic reactions were observed | –
CC1(C)C(=CC=C2CCCC(C=CC3=[N+](CCCCS(=O)(=O)[O-])c4ccc(S(=O)(=O)[O-])cc4C3(C)C)=C2Oc2ccc(CC(NC(=O)CCOCCCOCCCNC(=O)CCC(NC(=O)NC(CCC(=O)[O-])C(=O)[O-])C(=O)[O-])C(=O)[O-])cc2)N(CCCCS(=O)(=O)[O-])c2ccc(S(=O)(=O)[O-])cc21.[Na+].[Na+].[Na+].[Na+].[Na+].[Na+].[Na+] (centres unmarked) [Example 31] | good affinity | good targeting properties | enriched in the prostate cancer tumor site | good TBR | greater fluorescence values at the tumor site than OTL78 | higher TBR | approximately 5 fold | cleared more rapidly | no toxic reactions were observed | –
CC1(C)C(=CC=C2CCCC(C=CC3=[N+](CCCCS(=O)(=O)[O-])c4ccc(S(=O)(=O)[O-])cc4C3(C)C)=C2Oc2ccc(CC(NC(=O)CCOCCCOCCCOCCOCCOCCNC(=O)CCC(NC(=O)NC(CCC(=O)[O-])C(=O)[O-])C(=O)[O-])C(=O)[O-])cc2)N(CCCCS(=O)(=O)[O-])c2ccc(S(=O)(=O)[O-])cc21.[Na+].[Na+].[Na+].[Na+].[Na+].[Na+].[Na+] (centres unmarked) [Example 41] | good affinity | good targeting properties | enriched in the prostate cancer tumor site | good TBR | greater fluorescence values at the tumor site than OTL78 | higher TBR | approximately 5 fold | cleared more rapidly | no toxic reactions were observed | –
CC1(C)C(/C=C/C2=C(Oc3ccc(C[C@H](NC(=O)[C@H](Cc4ccccc4)NC(=O)CCOCCOCCNC(=O)CC[C@H](NC(=O)N[C@@H](CCC(=O)O)C(=O)O)C(=O)O)C(=O)O)cc3)C(=C/C=C3/N(CCCCS(=O)(=O)O)c4ccc(S(=O)(=O)O)cc4C3(C)C)/CCC2)=[N+](CCCCS(=O)(=O)[O-])c2ccc(S(=O)(=O)O)cc21 [OTL78, reference compound] | – | – | – | – | – | – | – | – | – | TBR (mean) (22RV1 (PSMA+) [2]; 1 h): 1.30; TBR (mean) (22RV1 (PSMA+) [2]; 2 h): 1.35; TBR (mean) (22RV1 (PSMA+) [2]; 4 h): 1.38; TBR (mean) (22RV1 (PSMA+) [2]; 8 h): 1.36; TBR (mean) (22RV1 (PSMA+) [2]; 24 h): 1.55; TBR (mean) (22RV1 (PSMA+) [2]; 72 h): 1.65; fluorescence value at the tumor site (22RV1 (PSMA+) [2]; 1 h): 8.75E+09; fluorescence value at the tumor site (22RV1 (PSMA+) [2]; 2 h): 6.58E+09; fluorescence value at the tumor site (22RV1 (PSMA+) [2]; 4 h): 3.27E+09; fluorescence value at the tumor site (22RV1 (PSMA+) [2]; 8 h): 1.71E+09; fluorescence value at the tumor site (22RV1 (PSMA+) [2]; 24 h): 1.41E+09; fluorescence value at the tumor site (22RV1 (PSMA+) [2]; 72 h): 9.69E+08; Prostate fluorescence (22RV1 (PSMA+) [3]; group mean): 3.27E+09 photon/second; Tumor fluorescence (22RV1 (PSMA+) [3]; group mean): 7.26E+09 photon/second; Prostate fluorescence (22RV1 (PSMA+) [3]; individual animal): 4.77E+08 photon/second and 8.11E+09 photon/second and 1.23E+09 photon/second; Tumor fluorescence (22RV1 (PSMA+) [3]; individual animal): 7.07E+09 photon/second and 1.01E+10 photon/second and 4.61E+09 photon/second; T/P Ratio (22RV1 (PSMA+) [3]; group mean): 6.61; T/P Ratio (22RV1 (PSMA+) [3]; individual animal): 14.8 and 1.25 and 3.75; average AUC0-t ([4]; rats, 2 mg/kg, plasma): 9429 ng·h/mL; average clearance ([4]; rats, 2 mg/kg, plasma): 3.50 mL/min/kg
